pKi: −log10 of the molar value.
molecular target: active HPK1 (SignalChem M23-11G) (Homo sapiens (Human), UniProt Q92918); assay: HPK1 Kinase Binding Assay; conditions: LanthaScreen tracer 222 / Eu-Anti GST antibody, one hour incubation at 25° C.
Protocol: A stock solution of 1 mM test compound was prepared in DMSO. The compound plate was prepared by 3-fold and 11-point serial dilutions. 0.1 μL of the compound in DMSO was transferred from the compound plate to the white 384 well polystyrene plates. The assay buffer contained 50 mM HEPES, pH 7.5, 0.01% Tween-20, 5 mM MgCl2, 0.01% BSA, and 5 mM DTT. 5 μL of 4 nM active HPK1 (SignalChem M23-11G) prepared in the buffer was added to the plate. The enzyme concentration given was based on the given stock concentration reported by the vender. 5 μl of 18 nM tracer 222 (ThermoFisher PV6121) and 4 nM LanthaScreen Eu-Anti GST antibody (ThermoFisher PV5595) were added. After one hour incubation at 25° C., the plates were read on a PHERAstar FS plate reader (BMG Labtech). Ki values were determined.

Sequence of active HPK1 (SignalChem M23-11G) (Q92918 1-346 limits assumed): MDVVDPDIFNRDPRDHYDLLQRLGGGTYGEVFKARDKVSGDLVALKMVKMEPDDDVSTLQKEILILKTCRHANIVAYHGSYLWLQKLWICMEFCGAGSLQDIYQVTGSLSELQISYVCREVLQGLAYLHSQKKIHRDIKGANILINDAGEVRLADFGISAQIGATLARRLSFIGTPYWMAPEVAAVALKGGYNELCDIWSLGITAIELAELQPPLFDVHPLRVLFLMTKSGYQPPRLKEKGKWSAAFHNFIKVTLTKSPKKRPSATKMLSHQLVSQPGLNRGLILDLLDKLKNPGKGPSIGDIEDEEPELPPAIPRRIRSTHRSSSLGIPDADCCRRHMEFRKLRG

pKi | SMILES
≥ 7.00 | COCCc1nc2c(N3CCC[C@H]3CN)c(NC(=O)c3ccnc(-c4c(F)cccc4OC)n3)ccc2n1C [Example 26, (S)—N-(4-(2-(Aminomethyl)pyrrolidin-1-yl)-2-(2-methoxyethyl)-1-methyl-1H-benzo[d]imidazol-5-yl)-2-(2-fluoro-6-methoxyphenyl)pyrimidine-4-carboxamide]
≥ 7.00 | COc1cccc(F)c1-c1nccc(C(=O)Nc2ccc3c(ncn3[C@@H]3CCOC3)c2N2CCC[C@H]2CN)n1 [Example 27, N-(4-((S)-2-(Aminomethyl)pyrrolidin-1-yl)-1-((R)-tetrahydrofuran-3-yl)-1H-benzo[d]imidazol-5-yl)-2-(2-fluoro-6-methoxyphenyl)pyrimidine-4-carboxamide]
≥ 7.00 | COc1cccc(F)c1-c1nccc(C(=O)Nc2ccc3c(ncn3C)c2N2CCC[C@H]2CN)n1 [Example 28, (S)—N-(4-(2-(Aminomethyl)pyrrolidin-1-yl)-1-methyl-1H-benzo[d]imidazol-5-yl)-2-(2-fluoro-6-methoxyphenyl)pyrimidine-4-carboxamide]
≥ 7.00 | Cc1nc2c(N3CCC[C@H]3CN)c(NC(=O)c3ccnc(-c4c(F)cccc4F)n3)ccc2n1C [Example 32, (S)—N-(4-(2-(Aminomethyl)pyrrolidin-1-yl)-1,2-dimethyl-1H-benzo[d]imidazol-5-yl)-2-(2,6-difluorophenyl)pyrimidine-4-carboxamide]
≥ 7.00 | Cc1cccc(F)c1-c1nccc(C(=O)Nc2ccc3c(nc(C)n3C)c2N2CCC[C@H]2CN)n1 [Example 33, (S)—N-(4-(2-(Aminomethyl)pyrrolidin-1-yl)-1,2-dimethyl-1H-benzo[d]imidazol-5-yl)-2-(2-fluoro-6-methylphenyl)pyrimidine-4-carboxamide]
≥ 7.00 | COc1cccc(F)c1-c1nc(C(=O)Nc2ccc3c(nc(C)n3C)c2N2CCC[C@H]2CN)ccc1F [Example 34, N-(4-((S)-2-(Aminomethyl)pyrrolidin-1-yl)-1,2-dimethyl-1H-benzo[d]imidazol-5-yl)-5-fluoro-6-(2-fluoro-6-methoxyphenyl)picolinamide]
≥ 7.00 | COc1cccc(F)c1-c1nccc(C(=O)Nc2ccc3c(ccn3C)c2N2CCC[C@@H]2CN)n1 [Example 35, (R)—N-(4-(2-(Aminomethyl)pyrrolidin-1-yl)-1-methyl-1H-indol-5-yl)-2-(2-fluoro-6-methoxyphenyl)pyrimidine-4-carboxamide]

Continued, compound first:

SMILES | pKi
COc1cccc(F)c1-c1nccc(C(=O)Nc2ccc3c(nc(C)n3Cc3ccncc3)c2N2CC[C@H](N)C2)n1 [Example 29, (S)—N-(4-(3-Aminopyrrolidin-1-yl)-2-methyl-1-(pyridin-4-ylmethyl)-1H-benzo[d]imidazol-5-yl)-2-(2-fluoro-6-methoxyphenyl)pyrimidine-4-carboxamide] | ≥ 7.00
COc1cccc(F)c1-c1nccc(C(=O)Nc2ccc3c(nc(C)n3Cc3cnn(C)c3)c2N2CC[C@H](N)C2)n1 [Example 30, (S)—N-(4-(3-Aminopyrrolidin-1-yl)-2-methyl-1-((1-methyl-1H-pyrazol-4-yl)methyl)-1H-benzo[d]imidazol-5-yl)-2-(2-fluoro-6-methoxyphenyl)pyrimidine-4-carboxamide] | ≥ 7.00
COc1cccc(F)c1-c1nccc(C(=O)Nc2ccc3c(nc(C)n3C)c2-c2ccccc2N)n1 [Example 31, N-(4-(2-Aminophenyl)-1,2-dimethyl-1H-benzo[d]imidazol-5-yl)-2-(2-fluoro-6-methoxyphenyl)pyrimidine-4-carboxamide] | ≥ 7.00
COc1cccc(F)c1-c1nccc(C(=O)Nc2ccc3c(ccn3C)c2N2C[C@@H](N)C[C@H]2CO)n1 [Example 36, N-(4-((2S,4S)-4-Amino-2-(hydroxymethyl)pyrrolidin-1-yl)-1-methyl-1H-indol-5-yl)-2-(2-fluoro-6-methoxyphenyl)pyrimidine-4-carboxamide] | ≥ 7.00
COc1cccc(F)c1-c1nccc(C(=O)Nc2ccc3c(ccn3C)c2N2CCNC[C@H]2C)n1 [Example 37, (R)-2-(2-Fluoro-6-methoxyphenyl)-N-(1-methyl-4-(2-methylpiperazin-1-yl)-1H-indol-5-yl)pyrimidine-4-carboxamide] | ≥ 7.00
COc1cccc(F)c1-c1nccc(C(=O)Nc2ccc3c(ccn3C)c2N2C[C@@H]3C[C@H]2CN3)n1 [Example 38, N-(4-((1S,4S)-2,5-Diazabicyclo[2.2.1]heptan-2-yl)-1-methyl-1H-indol-5-yl)-2-(2-fluoro-6-methoxyphenyl)pyrimidine-4-carboxamide] | ≥ 7.00
COc1cccc(F)c1-c1nccc(C(=O)Nc2ccc3c(ccn3Cc3ccncc3)c2N2C[C@@H]3C[C@H]2CN3)n1 [Example 39, N-(4-((1S,4S)-2,5-Diazabicyclo[2.2.1]heptan-2-yl)-1-(pyridin-4-ylmethyl)-1H-indol-5-yl)-2-(2-fluoro-6-methoxyphenyl)pyrimidine-4-carboxamide] | ≥ 7.00
COc1cccc(F)c1-c1nccc(C(=O)Nc2ccc3[nH]ccc3c2N2C[C@@H]3C[C@H]2CN3)n1 [Example 40, N-(4-((1S,4S)-2,5-Diazabicyclo[2.2.1]heptan-2-yl)-1H-indol-5-yl)-2-(2-fluoro-6-methoxyphenyl)pyrimidine-4-carboxamide] | ≥ 7.00
COc1cccc(F)c1-c1nccc(C(=O)Nc2ccc3c(ccn3CC3CCCCO3)c2N2C[C@@H]3C[C@H]2CN3)n1 (stereo partly drawn) [Example 41, N-(4-((1S,4S)-2,5-Diazabicyclo[2.2.1]heptan-2-yl)-1-((tetrahydro-2H-pyran-2-yl)methyl)-1H-indol-5-yl)-2-(2-fluoro-6-methoxyphenyl)pyrimidine-4-carboxamide] | ≥ 7.00
COc1cccc(F)c1-c1nccc(C(=O)Nc2ccc3c(ccn3Cc3cnc(C)s3)c2N2C[C@@H]3C[C@H]2CN3)n1 [Example 42, N-(4-((1S,4S)-2,5-Diazabicyclo[2.2.1]heptan-2-yl)-1-((2-methylthiazol-5-yl)methyl)-1H-indol-5-yl)-2-(2-fluoro-6-methoxyphenyl)pyrimidine-4-carboxamide] | ≥ 7.00
COc1cccc(F)c1-c1nccc(C(=O)Nc2ccc3c(ccn3CCN3CCOCC3)c2N2C[C@@H]3C[C@H]2CN3)n1 [Example 43, N-(4-((1S,4S)-2,5-Diazabicyclo[2.2.1]heptan-2-yl)-1-(2-morpholinoethyl)-1H-indol-5-yl)-2-(2-fluoro-6-methoxyphenyl)pyrimidine-4-carboxamide] | ≥ 7.00
COc1cc(-n2ccc3c(N4C[C@@H]5C[C@H]4CN5)c(NC(=O)c4ccnc(-c5c(F)cccc5OC)n4)ccc32)ccn1 [Example 44, N-(4-((1S,4S)-2,5-Diazabicyclo[2.2.1]heptan-2-yl)-1-(2-methoxypyridin-4-yl)-1H-indol-5-yl)-2-(2-fluoro-6-methoxyphenyl)pyrimidine-4-carboxamide] | ≥ 7.00
COc1ccc(-n2ccc3c(N4C[C@@H](N)C[C@H]4CO)c(NC(=O)c4ccnc(-c5c(F)cccc5OC)n4)ccc32)c(F)c1 [Example 45, N-(4-((2S,4S)-4-Amino-2-(hydroxymethyl)pyrrolidin-1-yl)-1-(2-fluoro-4-methoxyphenyl)-1H-indol-5-yl)-2-(2-fluoro-6-methoxyphenyl)pyrimidine-4-carboxamide] | ≥ 7.00
COc1cccc(F)c1-c1nccc(C(=O)Nc2ccc3c(ccn3-c3ccnn3C)c2N2C[C@@H](N)C[C@H]2CO)n1 [Example 46, N-(4-((2S,4S)-4-Amino-2-(hydroxymethyl)pyrrolidin-1-yl)-1-(1-methyl-1H-pyrazol-5-yl)-1H-indol-5-yl)-2-(2-fluoro-6-methoxyphenyl)pyrimidine-4-carboxamide] | ≥ 7.00
COc1cccc(F)c1-c1nccc(C(=O)Nc2ccc3c(ccn3-c3cccc(F)c3C#N)c2N2C[C@@H](N)C[C@H]2CO)n1 [Example 47, N-(4-((2S,4S)-4-Amino-2-(hydroxymethyl)pyrrolidin-1-yl)-1-(2-cyano-3-fluorophenyl)-1H-indol-5-yl)-2-(2-fluoro-6-methoxyphenyl)pyrimidine-4-carboxamide] | ≥ 7.00

Reference: patent publication US11299473B2, “Benzimidazole and indole compounds and uses thereof” (Incyte Corporation, priority 2018, dated 2022)
